In patent US8685936B2, “Sphingosine kinase inhibitor prodrugs” (Apogee Biotechnology Corporation, priority 2009, dated 2014):

Assays:
[1] = system: Murine JC mammary adenocarcinoma cells; assay: Cytotoxicity, MTS cell viability assay; type: cell-based; details: 72 hours
Excerpt: FIG. 5. Inhibition of tumor cell proliferation by Compound 1 and Compound 2. Murine JC mammary adenocarcinoma cells were exposed to the indicated concentrations of either Compound 1 (▪) or Compound 2 (▴) for 72 hr. At the end of the exposure, the number of viable tumor cells was quantified using the MTS assay. Values represent the fraction of surviving cells compared with DMSO-(vehicle)-treated control cells.
To further assess the biological efficacies of the Compounds in intact cells, Compound 1 and Compound 2 were evaluated for cytotoxicity using a murine breast cancer cell line. These experiments followed methods that have been extensively used. The cells were treated with varying doses of the test Compound for 72 hours, and then cell viability was measured using CellTiter 96® AQueous Non-Radioactive Cell Proliferation Assay (MTS) available from Promega Corporation. Values represent the mean±std. dev. percentage of cells that survive at each of the indicated concentrations of Compound 1 or Compound 2. […] However, the extent of cell killing and the potency for cell killing were greater for Compound 2 than Compound 1.

[2] = system: TNBS-induced Crohn's Disease model; assay: TNBS-induced Crohn's Disease model; type: in vivo
Experimental: FIG. 12. Effects of Compound 1 and Compound 2 on colon histology in the TNBS-induced Crohn's Disease model. On Day 0, female Sprague-Dawley rats were administered TNBS using a stainless steel catheter that was inserted into the colon (8 cm proximal to the anus; 1.0 mL of solution containing 30 mg TNBS and 20% ethanol in PBS). On Days 0-5 animals received daily oral gavage of Vehicle (described in FIG. 7) or 50 mg/kg of Compound 1 or Compound 2 in Vehicle. On Day 6, the colons were removed, weighed and scored for macroscopic damage. The distal 6 cm were transected for subsequent histology and biochemical analyses. In this model, the macroscopic score is an index of histologic damage to the colon which increases as the disease progresses.
FIG. 13. Effects of Compound 1 and Compound 2 on colon weight in the TNBS-induced Crohn's Disease model. Colon weights were measured for the rats described in FIG. 12. Values represent the mean±std. dev. for 5-6 rats per group. In this model, colon weight increases as the disease progresses due to progressive inflammation-mediated edema.
FIG. 14. Effects of Compound 2 on neutrophil infiltration into the colon in the TNBS-induced Crohn's Disease model. Neutrophil infiltration was evaluated in the rats described in FIG. 12. Values represent the mean±std. dev. for 5-6 rats per group. In this model, MPO activity in the colon increases as a result of neutrophil infiltration into the colon as the disease progresses.
The trinitrobenzene sulfonic acid (TNBS) model in rats provides a rapid, reliable and reproducible IBD model that mimics the manifestations of Crohn's Disease. Application of the hapten TNBS to the colon in the presence of ethanol results in transmural infiltrative disease that is limited to the colon and appears to be an IL-12-driven, Th1-mediated immunologic response. […] TNBS induces measurable injury within 2 to 3 days, peak acute inflammation within a week, and gradual progression into chronic inflammation lasting about 2 months.
To test the efficacy of the Compounds, groups of female Sprague-Dawley rats were administered TNBS on Day 0 and treated with vehicle (as the negative control group), Compound 1 or Compound 2 on Days 0-5 by oral gavage at a dose of 50 mg/kg/day. […] Disease progression was evaluated by macroscopic score, colon weight and colon MPO activity at sacrifice. The macroscopic score measures macroscopic damage within the distal 6 cm of the colon using a system that considers the extent of and number of ulcerations.

[3] = system: mouse JC mammary adenocarcinoma tumors; assay: Antitumor activity, JC mammary adenocarcinoma tumors growing subcutaneously in Balb/c mice; type: in vivo; details: 50 mg/kg of Compound 2 daily for five days per week
Experimental: FIG. 6. Antitumor activity of Compound 2 alone and in combination with gemcitabine. Murine JC mammary adenocarcinoma cells were injected subcutaneously into Balb/c mice and tumors were allowed to grow to approximately 150 mm^3. The animals were then treated with vehicle alone (▪), 1 mg/kg of gemcitabine weekly (▴), 50 mg/kg of Compound 2 daily for five days per week (▾) or a combination of gemcitabine plus Compound 2 (♦). Tumors were measured twice per week. The values shown represent the average tumor volume+/−the std. dev. for each group (n=8).
The antitumor activity of a representative prodrug SK inhibitor was evaluated using a […] tumor model that uses the mouse JC mammary adenocarcimona cell line growing subcutaneously in immunocompetent Balb/c mice (Lee et al., Oncol Res 14: 49 (2003)). These cells express elevated levels of SK activity relative to non-transformed cells, as well as the multidrug resistance phenotype due to P-glycoprotein activity. Murine JC mammary adenocarcinoma cells were injected subcutaneously into Balb/c mice and tumors were allowed to grow to approximately 100 mm^3. The animals were then treated with vehicle alone (▪), 1 mg/kg of gemcitabine weekly (▴), 50 mg/kg of Compound 2 daily for five days per week (▾) or a combination of gemcitabine plus Compound 2 (♦). Tumors were measured twice per week. […]

[4] = TNBS Day 0, 50 mg/kg/day oral gavage Days 0-5, Day 6, female Sprague-Dawley rats

## CC(=O)Oc1ccc(CCNC(=O)C23CC4CC(C2)CC(c2ccc(Cl)cc2)(C4)C3)cc1OC(C)=O [Compound 2, Acetic acid 2-acetoxy-5-(2-{[3-(4-chlorophenyl)-adamantane-1-carbonyl]-amino}ethyl)phenyl ester]
[1]
  extent of cell killing, Compound 2 compared with Compound 1: greater
  inhibition of tumor cell proliferation (cell viability): can inhibit tumor cell proliferation
  potency for cell killing, Compound 2 compared with Compound 1: greater
[2]; 50 mg/kg/day oral gavage Days 0-5, rats sacrificed on Day 6
  Compound-related toxicities: no Compound-related toxicities apparent
[2]; [4]
  Macroscopic Score of colon damage: reduced the Macroscopic Score
  colon MPO activity (granulocyte infiltration): reduced MPO activity in the colon
  colon weight: reduced the elevation of the colon weight
[3]
  tumor growth (tumor volume): significant reduction of tumor growth
